Measurements reported in the supplement of paper PMC10307832.

Experiments:
Assay in all cases: relative viability (nuclei count vs DMSO), 5 days (fraction); higher = more cells survive
[1] = test system: A549
Summary of the method: (§1)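 Relative viability equals treated-well nuclei counts divided by vehicle-well nuclei counts. Counts came from 4× images of lung cancer cell lines grown in 1536-well plates for 5 days after pin-tool dosing on the day after seeding. Dosing used one drug alone or a fixed anchor-drug dose plus five library-drug doses (not always all listed) in √10 steps, and values are medians of duplicate plates.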

[2] = test system: A-427
Summary of the method: as §1

[3] = test system: NCI-H1299
Summary of the method: as §1

[4] = test system: EBC-1
Summary of the method: as §1

[5] = test system: HCC-44
Summary of the method: as §1

[6] = test system: SW 1573
Summary of the method: as §1

[7] = test system: NCI-H2023
Summary of the method: as §1

[8] = test system: Calu-6
Summary of the method: as §1

[9] = test system: NCI-H1703
Summary of the method: as §1

[10] = test system: RERF-LC-KJ
Summary of the method: as §1

[11] = test system: IA-LM
Summary of the method: as §1

[12] = test system: NCI-H1993
Summary of the method: as §1

With `COCC1(CO)C(=O)C2CCN1CC2` (stereo not drawn) [PRIMA-1MET] + C[C@]1(O)C[C@@H](c2nc(-c3ccc4ccc(-c5ccccc5)nc4c3)c3c(N)nccn32)C1 [Linsitinib] (partner 1 µM) the relative viability ([1]; first compound 0.2 µM) was 0.708, the relative viability ([1]; first compound 0.6325 µM) was 0.559 and the relative viability ([1]; first compound 2 µM) was 0.281. It also gave a relative viability ([1]; first compound 6.325 µM) of 0.598, a relative viability ([1]; first compound 20 µM) of 0.403 and a relative viability ([2]; first compound 0.2 µM) of 1.19. It also gave a relative viability ([2]; first compound 0.6325 µM) of 0.703, a relative viability ([2]; first compound 2 µM) of 0.953 and a relative viability ([2]; first compound 6.325 µM) of 1.12. The relative viability ([2]; first compound 20 µM) was 1.08, the relative viability ([3]; first compound 0.2 µM) was 1.15 and the relative viability ([3]; first compound 0.6325 µM) was 0.852. For the same molecule, the relative viability ([3]; first compound 2 µM) was 1.01, the relative viability ([3]; first compound 6.325 µM) was 1.05 and the relative viability ([3]; first compound 20 µM) was 0.917. For the same molecule, the relative viability ([4]; first compound 0.2 µM) was 1.02, the relative viability ([4]; first compound 0.6325 µM) was 0.972 and the relative viability ([4]; first compound 2 µM) was 0.758. For the same molecule, the relative viability ([4]; first compound 6.325 µM) was 0.9, the relative viability ([4]; first compound 20 µM) was 0.623 and the relative viability ([5]; first compound 0.2 µM) was 0.746. It also gave a relative viability ([5]; first compound 0.6325 µM) of 0.528, a relative viability ([5]; first compound 2 µM) of 0.673 and a relative viability ([5]; first compound 6.325 µM) of 0.706. For the same molecule, the relative viability ([5]; first compound 20 µM) was 0.625, the relative viability ([6]; first compound 0.2 µM) was 0.779 and the relative viability ([6]; first compound 0.6325 µM) was 0.796. It also gave a relative viability ([6]; first compound 2 µM) of 0.875, a relative viability ([6]; first compound 6.325 µM) of 0.456 and a relative viability ([6]; first compound 20 µM) of 0.0414. For the same molecule, the relative viability ([7]; first compound 0.2 µM) was 0.784, the relative viability ([7]; first compound 0.6325 µM) was 0.65 and the relative viability ([7]; first compound 2 µM) was 0.7. The relative viability ([7]; first compound 6.325 µM) was 0.668, the relative viability ([7]; first compound 20 µM) was 0.609 and the relative viability ([8]; first compound 0.2 µM) was 1.02. For the same molecule, the relative viability ([8]; first compound 0.6325 µM) was 0.885, the relative viability ([8]; first compound 2 µM) was 0.732 and the relative viability ([8]; first compound 6.325 µM) was 0.957. It also gave a relative viability ([8]; first compound 20 µM) of 0.687, a relative viability ([9]; first compound 0.2 µM) of 0.25 and a relative viability ([9]; first compound 6.325 µM) of 1.29. It also gave a relative viability ([9]; first compound 20 µM) of 0.0482, a relative viability ([10]; first compound 0.2 µM) of 0.961 and a relative viability ([10]; first compound 0.6325 µM) of 0.955. For the same molecule, the relative viability ([10]; first compound 2 µM) was 0.832, the relative viability ([10]; first compound 6.325 µM) was 0.922 and the relative viability ([10]; first compound 20 µM) was 0.875. The relative viability ([11]; first compound 0.2 µM) was 0.483, the relative viability ([11]; first compound 0.6325 µM) was 0.661 and the relative viability ([11]; first compound 2 µM) was 0.358. The relative viability ([11]; first compound 6.325 µM) was 0.713, the relative viability ([11]; first compound 20 µM) was 0.573 and the relative viability ([12]; first compound 0.2 µM) was 0.708. It also gave a relative viability ([12]; first compound 0.6325 µM) of 0.794, a relative viability ([12]; first compound 2 µM) of 0.656 and a relative viability ([12]; first compound 6.325 µM) of 0.725. For the same molecule, the relative viability ([12]; first compound 20 µM) was 0.757.
`COCC1(CO)C(=O)C2CCN1CC2` (stereo not drawn) [PRIMA-1MET] + Cc1nc(NC(=O)N2CCC[C@H]2C(N)=O)sc1-c1ccnc(C(C)(C)C(F)(F)F)c1 [Alpelisib] (partner 2 µM) showed a relative viability ([1]; first compound 0.2 µM) of 0.728, a relative viability ([1]; first compound 0.6325 µM) of 0.803 and a relative viability ([1]; first compound 2 µM) of 0.861. For the same molecule, the relative viability ([1]; first compound 6.325 µM) was 0.881, the relative viability ([1]; first compound 20 µM) was 0.593 and the relative viability ([2]; first compound 0.2 µM) was 1.04. The relative viability ([2]; first compound 0.6325 µM) was 1.05, the relative viability ([2]; first compound 2 µM) was 0.9 and the relative viability ([2]; first compound 6.325 µM) was 1.04. The relative viability ([2]; first compound 20 µM) was 1.07, the relative viability ([3]; first compound 0.2 µM) was 1.07 and the relative viability ([3]; first compound 0.6325 µM) was 1.08. It also gave a relative viability ([3]; first compound 2 µM) of 1.08, a relative viability ([3]; first compound 6.325 µM) of 1.03 and a relative viability ([3]; first compound 20 µM) of 0.976. The relative viability ([4]; first compound 0.2 µM) was 0.87, the relative viability ([4]; first compound 0.6325 µM) was 0.921 and the relative viability ([4]; first compound 2 µM) was 0.83. For the same molecule, the relative viability ([4]; first compound 6.325 µM) was 0.757, the relative viability ([4]; first compound 20 µM) was 0.666 and the relative viability ([5]; first compound 0.2 µM) was 0.87. The relative viability ([5]; first compound 0.6325 µM) was 0.647, the relative viability ([5]; first compound 2 µM) was 0.673 and the relative viability ([5]; first compound 6.325 µM) was 0.801. It also gave a relative viability ([5]; first compound 20 µM) of 0.737, a relative viability ([6]; first compound 0.2 µM) of 0.845 and a relative viability ([6]; first compound 0.6325 µM) of 0.691. The relative viability ([6]; first compound 2 µM) was 0.538, the relative viability ([6]; first compound 6.325 µM) was 0.355 and the relative viability ([6]; first compound 20 µM) was 0.0324. For the same molecule, the relative viability ([7]; first compound 0.2 µM) was 0.7, the relative viability ([7]; first compound 0.6325 µM) was 0.69 and the relative viability ([7]; first compound 2 µM) was 0.564. It also gave a relative viability ([7]; first compound 6.325 µM) of 0.615, a relative viability ([7]; first compound 20 µM) of 0.568 and a relative viability ([8]; first compound 0.2 µM) of 1.02. It also gave a relative viability ([8]; first compound 0.6325 µM) of 0.941, a relative viability ([8]; first compound 2 µM) of 0.859 and a relative viability ([8]; first compound 6.325 µM) of 1. The relative viability ([8]; first compound 20 µM) was 0.856, the relative viability ([9]; first compound 0.2 µM) was 0.393 and the relative viability ([9]; first compound 0.6325 µM) was 0.37. For the same molecule, the relative viability ([9]; first compound 2 µM) was 0.318, the relative viability ([9]; first compound 6.325 µM) was 0.436 and the relative viability ([9]; first compound 20 µM) was 0.0451. For the same molecule, the relative viability ([10]; first compound 0.2 µM) was 0.797, the relative viability ([10]; first compound 0.6325 µM) was 0.835 and the relative viability ([10]; first compound 2 µM) was 0.715. It also gave a relative viability ([10]; first compound 6.325 µM) of 1.01, a relative viability ([10]; first compound 20 µM) of 0.75 and a relative viability ([11]; first compound 0.2 µM) of 0.695. For the same molecule, the relative viability ([11]; first compound 0.6325 µM) was 0.863, the relative viability ([11]; first compound 2 µM) was 0.726 and the relative viability ([11]; first compound 6.325 µM) was 1. The relative viability ([11]; first compound 20 µM) was 0.813, the relative viability ([12]; first compound 0.2 µM) was 0.724 and the relative viability ([12]; first compound 0.6325 µM) was 0.706. The relative viability ([12]; first compound 2 µM) was 0.628, the relative viability ([12]; first compound 6.325 µM) was 0.768 and the relative viability ([12]; first compound 20 µM) was 0.664.
